Drawing on ChEMBL document CHEMBL1641547, “Biologically active constituents from the fruiting body of Taiwanofungus camphoratus” (Bioorg Med Chem, 2011), this text covers EC50 and IC50 for 22 molecules.

In one assay the test system is Daoy. The assay can be described thus: Cytotoxicity against human DaOY cells after 3 days by MTT assay. It counts as functional. The settings on record: 72 h, read-out: ED50 (the source's name).
The nature of assay [1]: Inhibition of NOX in fMLP-induced PMN cells assessed as ROS production.
The next assay has as its system HeLa. Nature of the assay: Cytotoxicity against human HeLa cells after 3 days by MTT assay. It counts as functional. The note with it: 72 h, read-out: ED50 (the source's name).
The test system of a further assay is MCF7. Nature of the assay: Cytotoxicity against human MCF7 cells after 3 days by MTT assay. The class given is functional. The settings on record: MCF7, 72 h, read-out: ED50 (the source's name).
Another assay deals with HEp-2. Nature of the assay: Cytotoxicity against human Hep2 cells after 3 days by MTT assay. The class given is functional. The settings on record: HEp-2, 72 h, read-out: ED50 (the source's name).
Assay [2] addresses T1, Nitric oxide synthase, inducible (Mus musculus, UniProt P29477).
T1 sequence (P29477 whole entry): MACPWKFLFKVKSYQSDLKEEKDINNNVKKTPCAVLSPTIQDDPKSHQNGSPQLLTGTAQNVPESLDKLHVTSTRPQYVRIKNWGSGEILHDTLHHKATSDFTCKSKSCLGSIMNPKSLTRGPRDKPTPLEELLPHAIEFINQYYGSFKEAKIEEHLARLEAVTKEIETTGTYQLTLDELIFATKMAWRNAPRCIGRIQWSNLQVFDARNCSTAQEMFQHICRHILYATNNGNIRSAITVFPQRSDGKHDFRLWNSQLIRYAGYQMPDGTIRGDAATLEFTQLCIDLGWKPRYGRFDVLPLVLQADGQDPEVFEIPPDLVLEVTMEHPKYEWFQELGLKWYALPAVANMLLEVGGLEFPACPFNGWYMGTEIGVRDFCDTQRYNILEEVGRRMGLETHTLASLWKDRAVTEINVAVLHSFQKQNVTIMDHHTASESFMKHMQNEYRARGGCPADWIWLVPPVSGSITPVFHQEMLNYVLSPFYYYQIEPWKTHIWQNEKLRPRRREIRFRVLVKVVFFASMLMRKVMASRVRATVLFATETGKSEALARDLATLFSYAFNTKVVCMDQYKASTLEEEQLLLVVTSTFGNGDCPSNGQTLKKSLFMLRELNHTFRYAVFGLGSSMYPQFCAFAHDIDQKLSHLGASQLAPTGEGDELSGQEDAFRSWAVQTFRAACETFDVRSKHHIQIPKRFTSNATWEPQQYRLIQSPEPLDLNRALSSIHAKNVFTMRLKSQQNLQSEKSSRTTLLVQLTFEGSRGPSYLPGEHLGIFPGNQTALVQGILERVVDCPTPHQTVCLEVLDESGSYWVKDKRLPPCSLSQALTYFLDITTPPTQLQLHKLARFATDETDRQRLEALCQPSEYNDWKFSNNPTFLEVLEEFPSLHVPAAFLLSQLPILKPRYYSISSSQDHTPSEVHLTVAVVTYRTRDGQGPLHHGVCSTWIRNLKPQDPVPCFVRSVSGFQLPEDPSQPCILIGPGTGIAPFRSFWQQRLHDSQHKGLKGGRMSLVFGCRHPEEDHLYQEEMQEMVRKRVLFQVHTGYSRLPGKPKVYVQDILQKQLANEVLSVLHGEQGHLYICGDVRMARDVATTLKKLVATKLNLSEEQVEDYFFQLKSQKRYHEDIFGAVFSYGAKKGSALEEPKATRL
The assay can be described thus: Inhibition of iNOS in mouse BV2 microglial cells assessed as NO production. The class given is cell-based.

The nature of assay [3]: Inhibition of mouse NOX activity in NADPH-induced mouse BV2 microglial cells assessed as ROS production. The note with it: BV-2.

The structures appear in SMILES notation. Values after ≈ are worked out from the molar mass of the structure shown. Some results are limits rather than exact numbers.

`COc1cc(C)c(OC)c2c1OCO2`: the EC50 in the assay with Daoy, with HeLa, in the assay on MCF7 and with HEp-2 was greater than 20 µg/mL throughout. Further, in assay [1], the IC50 is 19.9 µM.

As for `COc1c(C)c(-c2c(C)c(OC)c3c(c2OC)OCO3)c(OC)c2c1OCO2`, the EC50 with Daoy, in the assay with HeLa, with MCF7 and in the assay on HEp-2 was greater than 20 µg/mL in each case. In addition, the IC50 in assay [1] turned out to be 15.5 µM.

Consider `OC1O[C@@H](c2ccc3c(c2)OCO3)[C@@H]2CO[C@@H](c3ccc4c(c3)OCO4)[C@H]12` (stereo not given in full) [4-HYDROXYSESAMIN], for which the EC50 in the assay with Daoy, in the assay on HeLa, with MCF7 and in the assay with HEp-2 was greater than 20 µg/mL throughout.

For the molecule `C=C(CC[C@@H](C)[C@H]1CC[C@H]2C3=C(C(=O)C[C@]12C)[C@@]1(C)CCC(=O)[C@@H](C)[C@@H]1CC3)C(C)C(=O)O` (stereo not given in full) [ANTCIN A], the EC50 was 13.2 µg/mL (≈ 29 µM) in the assay on Daoy, greater than 20 µg/mL in the assay with HeLa, 13.3 µg/mL (≈ 29.3 µM) with MCF7 and greater than 20 µg/mL in the assay on HEp-2. The results for the IC50 in assay [1] and in assay [2] were 29.2 µM and 4.1 µM, respectively.

With `C=C(CC[C@@H](C)[C@H]1CC[C@H]2C3=C(C(=O)C[C@]12C)[C@@]1(C)CC[C@@H](O)[C@](C)(O)[C@@H]1C[C@@H]3O)C(C)C(=O)O` (stereo not given in full) [ANTCIN K], the EC50 with Daoy, in the assay on HeLa, in the assay on MCF7 and in the assay on HEp-2 was greater than 20 µg/mL in each case. Besides, in assay [1], the concentration for half-maximal inhibition (IC50) was determined as 47.2 µM.

`C=C(C)C#Cc1c(OC)cc(OC)c(OC)c1C` [ANTROCAMPHIN A]: the EC50 in the assay on Daoy came out at 5.9 µg/mL (≈ 24 µM); in the assay on HeLa it was 6.9 µg/mL (≈ 28 µM); in the assay on MCF7 it was 3.4 µg/mL (≈ 13.8 µM); with HEp-2 it was 10.5 µg/mL (≈ 42.6 µM). Moreover, the half-maximal inhibitory concentration (IC50) turned out to be 15.1 µM in assay [1], 7.2 µM in assay [2] and 50.1 µM in assay [3].

For the molecule `C=C(C)C#Cc1c(C)c(OC)c(OC)c2c1OCO2` [BENZOCAMPHORIN B], in assay [1], the IC50 was 14.4 µM.

`C=C(CC[C@@H](C)[C@H]1CC[C@H]2C3=C(C(=O)C[C@]12C)[C@@]1(C)CC[C@@H](O)[C@@H](C)[C@@H]1C[C@@H]3O)C(C)C(=O)O` (stereo not given in full) [CAMPHORATIN B]: the IC50 in assay [1] came out at 32.1 µM; in assay [2], 15.7 µM.

Consider `C=C(CC[C@@H](C)[C@H]1CC[C@H]2C3=C(C(=O)C[C@]12C)[C@@]1(C)CCC(=O)[C@@H](C)[C@@H]1C[C@@H]3O)C(C)C(=O)O` (stereo not given in full) [CAMPHORATIN D], for which the EC50 with Daoy, with HeLa, in the assay with MCF7 and with HEp-2 was greater than 20 µg/mL each time. The IC50 in assay [1] was determined as 22.6 µM; in assay [2] it was 4.2 µM.

Take `C=C(CC[C@@H](C)[C@H]1CC[C@H]2C3=C(C(=O)C[C@]12C)[C@@]1(C)CC[C@@H](O)[C@@H](C)[C@@H]1CC3=O)C(C)C(=O)OC` (stereo not given in full) [CAMPHORATIN E]: the EC50 turned out to be 5.2 µg/mL (≈ 10.7 µM) in the assay on Daoy, 9 µg/mL (≈ 18.6 µM) in the assay with HeLa, 6.6 µg/mL (≈ 13.6 µM) with MCF7 and 7 µg/mL (≈ 14.4 µM) in the assay on HEp-2.

On to `C=C(CC[C@@H](C)[C@H]1CC[C@H]2C3=C(C(=O)C[C@]12C)[C@@]1(C)CCC(=O)[C@@H](C)[C@@H]1C[C@@H]3O)C(C)C(=O)OC` (stereo not given in full) [CAMPHORATIN F], for which the EC50 was 4.4 µg/mL (≈ 9.08 µM) with Daoy, 8.9 µg/mL (≈ 18.4 µM) in the assay on HeLa, 7.9 µg/mL (≈ 16.3 µM) in the assay with MCF7 and 3 µg/mL (≈ 6.19 µM) in the assay with HEp-2. In addition, the concentration for half-maximal inhibition (IC50) was found to be 11.2 µM in assay [1] and 2.5 µM in assay [2].

In the case of `C[C@H](/C=C/[C@H](C)[C@H](C)CO)[C@H]1CC[C@H]2C3=CC[C@H]4CC(=O)CC[C@]4(C)[C@H]3CC[C@]12C` [CAMPHORATIN I], the figures for the 50% inhibitory concentration (IC50) in assay [1] and in assay [2] were 17.5 µM and 12.7 µM, respectively.

For `C=C(CC[C@@H](C)[C@H]1CC[C@@H]2C3=C(C(=O)C[C@@]21C)[C@@]1(C)CCC(=O)[C@@H](C)[C@@H]1CC3)C(C)C(=O)OC` (stereo not given in full) [CAMPHORATIN J], the EC50 in the assay with Daoy is greater than 20 µg/mL; with HeLa it was 11.3 µg/mL (≈ 24.1 µM); with MCF7, 8.7 µg/mL (≈ 18.6 µM); with HEp-2 it was greater than 20 µg/mL. For the same molecule, the IC50 in assay [1] amounted to 15.8 µM; in assay [2] it was 1.6 µM.

In the case of `CC(C)[C@@H](C)/C=C/[C@@H](C)[C@H]1CC[C@@H]2[C@]1(C)CC[C@H]1[C@]23C=C[C@]2(C[C@@H](O)CC[C@]12C)OO3` [ERGOSTEROL PEROXIDE], the IC50 in assay [1] stood at 20.3 µM.

As to `CC(C)[C@@H](C)/C=C/[C@@H](C)[C@H]1CC[C@H]2C3=CC=C4C[C@@H](O)CC[C@]4(C)[C@H]3CC[C@]12C` [ERGOSTEROL], the half-maximal inhibitory concentration (IC50) in assay [1] came out at 27.9 µM; in assay [2], 30.6 µM.

In the case of `C=C(CC[C@@H](C)[C@H]1CC[C@H]2C3=C(C[C@H](O)[C@]12C)[C@@]1(C)CC[C@@H](O)[C@@H](C)[C@@H]1CC3=O)C(C)C(=O)OC` (stereo not given in full) [METHYL ANTCINATE H], the EC50 in the assay on Daoy, in the assay on HeLa, in the assay on MCF7 and in the assay with HEp-2 was greater than 20 µg/mL throughout. The IC50 in assay [1] stood at 18.1 µM; in assay [2] it was 2.5 µM.

In the case of `C=C(CC[C@@H](C)[C@H]1CC[C@H]2C3=C(C(=O)C[C@]12C)[C@@]1(C)CCC(=O)[C@@H](C)[C@@H]1CC3)C(C)C(=O)OC` (stereo not given in full) [METHYLANTCINATE A], the EC50 in the assay with Daoy, in the assay on HeLa, in the assay on MCF7 and in the assay with HEp-2 was greater than 20 µg/mL throughout. For the same molecule, the values for the half-maximal inhibitory concentration (IC50) in assay [1] and in assay [2] were 16.2 µM and 1.5 µM, respectively.

On to `c1cc2c(cc1[C@H]1OC[C@H]3[C@@H]1CO[C@@H]3c1ccc3c(c1)OCO3)OCO2` [SESAMIN], for which the EC50 in the assay on Daoy, with HeLa, with MCF7 and in the assay with HEp-2 was greater than 20 µg/mL in each case.

Consider `C=C(CC[C@@H](C)[C@H]1CC[C@H]2C3=C(C(=O)C[C@]12C)[C@@]1(C)CCC(=O)[C@@H](C)[C@@H]1CC3=O)C(C)C(=O)OC` (stereo not given in full) [ZHANKUIC ACID A METHYL ESTER], for which the EC50 in the assay with Daoy, in the assay with HeLa, in the assay on MCF7 and in the assay with HEp-2 was greater than 20 µg/mL throughout. Besides, the values for the IC50 in assay [1] and in assay [2] were 8.4 µM and 0.6 µM, respectively.

For `C=C(CC[C@@H](C)[C@H]1CC[C@H]2C3=C(C(=O)C[C@]12C)[C@@]1(C)CCC(=O)[C@@H](C)[C@@H]1CC3=O)C(C)C(=O)O` (stereo not given in full) [ZHANKUIC ACID A], the EC50 is greater than 20 µg/mL in the assay with Daoy, greater than 20 µg/mL in the assay on HeLa, greater than 20 µg/mL in the assay on MCF7 and 16.6 µg/mL (≈ 35.4 µM) with HEp-2. Further, the IC50 worked out at 22.1 µM in assay [1] and 3.6 µM in assay [2].

As for `C=C(CC[C@@H](C)[C@H]1CC[C@H]2C3=C(C(=O)C[C@]12C)[C@@]1(C)CC[C@@H](O)[C@@H](C)[C@@H]1CC3=O)C(C)C(=O)O` (stereo not given in full) [ZHANKUIC ACID B], the EC50 with Daoy, in the assay on HeLa, in the assay with MCF7 and in the assay with HEp-2 was greater than 20 µg/mL throughout. For the same molecule, in assay [2], the IC50 came out at 9.6 µM.

With `C=C(CC[C@@H](C)[C@H]1CC[C@H]2C3=C(C(=O)[C@H](O)[C@]12C)[C@@]1(C)CC[C@@H](O)[C@@H](C)[C@@H]1CC3=O)C(C)C(=O)O` (stereo not given in full) [ZHANKUIC ACID C], the EC50 in the assay on Daoy, with HeLa, in the assay on MCF7 and with HEp-2 was greater than 20 µg/mL in each case. Also, in assay [2], the IC50 was 16.2 µM.
